The text below walks through data of ChEMBL document CHEMBL1149141, “Crystal structures of the vitamin D nuclear receptor liganded with the vitamin D side chain analogues calcipotriol and seocalcitol, receptor agonists of clinical importance. Insights into a structural basis for the switching of calcipotriol to a receptor antagonist by further side chain …” (J Med Chem, 2004).

Test [1] concerns the target T1, Vitamin D3 receptor (Homo sapiens) (UniProt P11473).
T1 sequence (whole entry): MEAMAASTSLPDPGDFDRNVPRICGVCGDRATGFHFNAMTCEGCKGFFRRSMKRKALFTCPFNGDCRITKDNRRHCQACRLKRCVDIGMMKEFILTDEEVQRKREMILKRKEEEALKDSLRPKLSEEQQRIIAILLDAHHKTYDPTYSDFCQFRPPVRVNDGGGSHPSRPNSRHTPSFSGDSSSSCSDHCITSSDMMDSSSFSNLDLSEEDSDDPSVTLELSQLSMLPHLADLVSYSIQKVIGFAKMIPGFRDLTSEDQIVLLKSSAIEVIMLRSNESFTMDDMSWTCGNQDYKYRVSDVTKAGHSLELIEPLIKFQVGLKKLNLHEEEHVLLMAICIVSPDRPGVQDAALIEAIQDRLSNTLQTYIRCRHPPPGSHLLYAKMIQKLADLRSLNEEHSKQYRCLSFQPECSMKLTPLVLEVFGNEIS
The test can be described thus: Binding of compound towards human Vitamin D3 receptor was determined in vitro.

For a further test, the target named is T2, Vitamin D3 receptor (Homo sapiens, UniProt P11473).
T2 sequence (P11473 whole entry): T1 sequence (whole entry)
Description: Effective concentration required for inhibition of Vitamin D3 receptor.

SMILES strings stand for the structures.

In test [1], `C=C1/C(=C\C=C2/CCC[C@]3(C)[C@@H]([C@H](C)/C=C/C=C/C(O)(CC)CC)CC[C@@H]23)C[C@@H](O)C[C@@H]1O` came in with a Binding of 80%.

On Vitamin D3 receptor, `C=C1/C(=C\C=C2/CCC[C@]3(C)[C@@H]([C@H](C)/C=C/[C@@H](O)C4(/C=C/C(=O)OCC)CC4)CC[C@@H]23)C[C@@H](O)C[C@@H]1O` gave an EC50 of 0.35 nM.

`C=C1/C(=C\C=C2/CCC[C@]3(C)[C@@H]([C@H](C)/C=C/[C@@H](O)C4(C(=O)OCCCC)CC4)CC[C@@H]23)C[C@@H](O)C[C@@H]1O` yielded an EC50 at Vitamin D3 receptor of 0.4 nM.

`C=C1/C(=C\C=C2/CCC[C@]3(C)[C@@H]([C@H](C)/C=C/[C@@H](O)C4CC4)CC[C@@H]23)C[C@@H](O)C[C@@H]1O` came in with a Binding in test [1] of 90%.

In general, EC50 refers to the midpoint of the concentration-response curve. Low readings indicate greater potency, high ones weaker potency.
